Experimental data: article PMC4286194 (Biochemical Journal, 2015)

What was measured:
[1] = biological target: TESK1 (Homo sapiens, UniProt Q15569); test: Kinase profiling; type: biochemical
[2] = biological target: CK1 gamma 2 (Homo sapiens, UniProt P78368); test: Kinase profiling; type: biochemical
[3] = biological target: MINK1 (Homo sapiens, UniProt Q8N4C8); test: Kinase profiling; type: biochemical
[4] = biological target: MNK1 (Homo sapiens, UniProt Q9BUB5); test: Kinase profiling; type: biochemical
[5] = biological target: MARK2 (Homo sapiens, UniProt Q7KZI7); test: Kinase profiling; type: biochemical
[6] = biological target: PKA (Homo sapiens, UniProt P17612); test: Kinase profiling; type: biochemical
[7] = system: Bone-marrow-derived macrophages; test: TLR signalling immunoblots (MAPKs, MSK1/2, CREB, IKKs, TBK1); type: cell-based, mouse; conditions: for Kinetics of activation of MAPKs including ERK1/2 and p38α/β: 3 μM bosutinib or 0.3 μM dasatinib, LPS or Pam3CSK4; for TLR-stimulated phosphorylation of ERK1/2, JNK1/2, p38α/β MAPKs, MSK1/2, IKKα/β, TBK1 and their direct substrates: 3 μM bosutinib, 0.3 μM dasatinib or 0.5 μM HG-9-91-01
Method: Cells were extracted in lysis buffer [50 mM Tris/HCl, pH 7.4, 1 mM EDTA, 1 mM EGTA, 50 mM NaF, 5 mM sodium pyrophosphate, 10 mM sodium β-glycerol 1-phosphate, 1 mM DTT, 1 mM sodium orthovanadate, 0.27 M sucrose, 1% (v/v) Triton X-100, 1 μg/ml aprotinin, 1 μg/ml leupeptin and 1 mM PMSF]. Cell extracts were clarified by centrifugation and protein concentrations were determined using the Bradford assay. To immunoprecipitate endogenous CRTC3, 1 mg of cell extract was incubated with 5 μg of anti-CRTC3 [13] covalently cross-linked on to Protein G–Sepharose. Immune complexes were washed three times with lysis buffer, eluted in 1% SDS and separated by SDS/PAGE. To detect proteins in cell lysates, 20 μg of protein extract was separated by SDS/PAGE. After transfer to PVDF membranes, proteins were detected by immunoblotting and visualized by treating the blots with ECL (GE Healthcare) followed by autoradiography.

[8] = biological target: T1, PDK1 (Homo sapiens, UniProt O15530); test: Kinase profiling; type: biochemical
T1 sequence (O15530 1-556): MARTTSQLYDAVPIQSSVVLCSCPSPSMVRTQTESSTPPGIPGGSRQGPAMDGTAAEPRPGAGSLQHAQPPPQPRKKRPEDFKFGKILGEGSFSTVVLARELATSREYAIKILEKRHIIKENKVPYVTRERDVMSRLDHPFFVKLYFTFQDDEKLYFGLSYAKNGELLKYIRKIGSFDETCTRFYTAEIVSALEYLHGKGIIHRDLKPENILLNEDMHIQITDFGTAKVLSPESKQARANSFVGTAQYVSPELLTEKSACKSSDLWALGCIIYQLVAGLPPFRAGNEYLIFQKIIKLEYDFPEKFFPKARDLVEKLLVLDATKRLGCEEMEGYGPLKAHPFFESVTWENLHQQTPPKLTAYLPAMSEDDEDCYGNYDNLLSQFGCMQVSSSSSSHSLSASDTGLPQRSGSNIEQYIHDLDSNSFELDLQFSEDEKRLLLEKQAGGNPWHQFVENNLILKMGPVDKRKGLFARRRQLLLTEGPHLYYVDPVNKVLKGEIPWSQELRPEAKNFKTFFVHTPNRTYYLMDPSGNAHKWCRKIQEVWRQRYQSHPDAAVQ

[9] = biological target: MAP4K5 (Homo sapiens, UniProt Q9Y4K4); test: Kinase profiling; type: biochemical
[10] = biological target: IR (Homo sapiens, UniProt P06213); test: Kinase profiling; type: biochemical
[11] = biological target: CDK9-Cyclin T1 (Homo sapiens, UniProt P50750); test: Kinase profiling; type: biochemical
[12] = biological target: T2, TBK1 (Homo sapiens, UniProt Q9UHD2); test: Kinase profiling; type: biochemical
T2 sequence (Q9UHD2 1-729): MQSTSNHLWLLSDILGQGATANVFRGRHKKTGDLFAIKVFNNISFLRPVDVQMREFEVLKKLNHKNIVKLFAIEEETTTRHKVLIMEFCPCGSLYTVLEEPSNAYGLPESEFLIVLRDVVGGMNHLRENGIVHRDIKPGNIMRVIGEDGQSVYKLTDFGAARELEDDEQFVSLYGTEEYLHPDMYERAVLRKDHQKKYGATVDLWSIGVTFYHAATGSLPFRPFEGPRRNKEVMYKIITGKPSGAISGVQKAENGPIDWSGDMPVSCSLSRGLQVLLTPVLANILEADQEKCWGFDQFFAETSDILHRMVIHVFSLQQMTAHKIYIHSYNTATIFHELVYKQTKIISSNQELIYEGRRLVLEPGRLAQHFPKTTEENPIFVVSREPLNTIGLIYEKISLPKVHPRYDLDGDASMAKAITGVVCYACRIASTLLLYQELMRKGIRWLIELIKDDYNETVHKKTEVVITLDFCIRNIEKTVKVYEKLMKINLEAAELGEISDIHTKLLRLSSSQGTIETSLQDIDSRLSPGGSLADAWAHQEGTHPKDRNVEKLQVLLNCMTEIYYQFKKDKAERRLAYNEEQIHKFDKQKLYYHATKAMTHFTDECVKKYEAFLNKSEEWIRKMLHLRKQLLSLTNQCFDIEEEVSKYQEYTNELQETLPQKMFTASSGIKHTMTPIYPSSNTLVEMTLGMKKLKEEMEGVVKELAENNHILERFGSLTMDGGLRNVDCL

[13] = biological target: HIPK1 (Homo sapiens, UniProt Q86Z02); test: Kinase profiling; type: biochemical
[14] = system: RAW264.7 macrophages expressing HA-SIK2-WT; test: IL-10 and Nurr77 mRNA in macrophages expressing wild-type SIK2; type: cell-based; conditions: cells expressing wild-type SIK2; drug 1 h, LPS 1 h
Method: (§1) Primary macrophages were generated by differentiating bone marrow from 6- to 12-week-old C57BL/6 mice for 7 days in Dulbecco's modified Eagle's medium (DMEM) supplemented with 5 ng/ml recombinant M-CSF (R&D systems), 2 mM glutamine, 10% FBS, penicillin and streptomycin. Bone-marrow-derived macrophages were differentiated on non-tissue-culture-treated plastic, harvested and replated at a density of 100000 cells/cm^2 per 0.1 ml on tissue culture-treated plastic in fresh medium before stimulation on day 8. RAW264.7 cells were cultured in DMEM containing 10% FBS, 2 mM glutamine and penicillin and streptomycin. […] Cells were treated for 1 h with or without inhibitors and then stimulated for up to 24 h with either 1 μg/ml Pam3CSK4 or 100 ng/ml LPS.
(§2) mRNA was extracted from cells using the MicroElute Total RNA kit following the manufacturers’ instructions (Omega Bio-Tek). cDNA was generated from 0.5 μg of total RNA using the iScript cDNA synthesis kit and quantified by quantitative real-time PCR (qPCR) using the SsoFast EvaGreen Supermix on a CFX384 real-time system (Bio-Rad Laboratories). The relative expression of each gene was calculated from CT values using the Pfaffl method and was normalized against the mRNA levels of housekeeping genes including 18S RNA and GAPDH.

[15] = biological target: TrkA (Homo sapiens, UniProt P04629); test: Kinase profiling; type: biochemical
[16] = system: RAW264.7 macrophages expressing HA-SIK2[T96Q]; test: IL-10 and Nurr77 mRNA in macrophages expressing drug-resistant SIK2; type: cell-based; conditions: cells expressing drug-resistant SIK2[T96Q]; drug 1 h, LPS 1 h
Method: as §1, §2

MARK2, sequence (Q7KZI7 whole entry): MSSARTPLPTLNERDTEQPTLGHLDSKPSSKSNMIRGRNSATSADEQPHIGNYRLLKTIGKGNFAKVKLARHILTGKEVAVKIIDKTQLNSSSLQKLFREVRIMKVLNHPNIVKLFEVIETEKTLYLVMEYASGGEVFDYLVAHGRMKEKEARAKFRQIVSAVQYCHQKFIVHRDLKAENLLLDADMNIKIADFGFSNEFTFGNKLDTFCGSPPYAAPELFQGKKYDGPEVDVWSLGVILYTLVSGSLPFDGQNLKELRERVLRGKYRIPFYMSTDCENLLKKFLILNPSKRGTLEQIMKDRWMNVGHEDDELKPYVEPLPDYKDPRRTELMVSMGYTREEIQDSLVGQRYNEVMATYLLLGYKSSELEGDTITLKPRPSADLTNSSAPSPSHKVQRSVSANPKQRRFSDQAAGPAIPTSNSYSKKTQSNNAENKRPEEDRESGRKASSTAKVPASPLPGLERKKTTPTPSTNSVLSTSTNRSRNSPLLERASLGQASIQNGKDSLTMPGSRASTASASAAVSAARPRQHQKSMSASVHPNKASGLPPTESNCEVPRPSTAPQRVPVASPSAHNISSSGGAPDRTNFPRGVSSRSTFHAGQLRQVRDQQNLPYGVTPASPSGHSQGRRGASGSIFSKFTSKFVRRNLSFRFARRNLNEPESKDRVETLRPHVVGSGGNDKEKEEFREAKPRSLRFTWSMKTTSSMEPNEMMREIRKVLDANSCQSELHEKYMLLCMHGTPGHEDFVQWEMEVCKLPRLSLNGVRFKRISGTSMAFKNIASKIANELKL
CK1 gamma 2, sequence (P78368 whole entry): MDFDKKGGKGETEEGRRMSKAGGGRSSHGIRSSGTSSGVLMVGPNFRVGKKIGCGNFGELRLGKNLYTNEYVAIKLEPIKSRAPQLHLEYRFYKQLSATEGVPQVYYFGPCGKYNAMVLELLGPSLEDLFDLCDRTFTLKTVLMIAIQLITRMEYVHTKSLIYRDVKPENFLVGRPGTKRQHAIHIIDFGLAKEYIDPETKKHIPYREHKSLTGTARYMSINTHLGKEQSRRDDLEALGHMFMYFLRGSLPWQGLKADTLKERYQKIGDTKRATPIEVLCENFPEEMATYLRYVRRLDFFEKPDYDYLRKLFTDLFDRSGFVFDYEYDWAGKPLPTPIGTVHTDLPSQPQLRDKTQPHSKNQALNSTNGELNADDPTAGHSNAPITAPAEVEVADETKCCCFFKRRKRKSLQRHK
MNK1, sequence (Q9BUB5 whole entry): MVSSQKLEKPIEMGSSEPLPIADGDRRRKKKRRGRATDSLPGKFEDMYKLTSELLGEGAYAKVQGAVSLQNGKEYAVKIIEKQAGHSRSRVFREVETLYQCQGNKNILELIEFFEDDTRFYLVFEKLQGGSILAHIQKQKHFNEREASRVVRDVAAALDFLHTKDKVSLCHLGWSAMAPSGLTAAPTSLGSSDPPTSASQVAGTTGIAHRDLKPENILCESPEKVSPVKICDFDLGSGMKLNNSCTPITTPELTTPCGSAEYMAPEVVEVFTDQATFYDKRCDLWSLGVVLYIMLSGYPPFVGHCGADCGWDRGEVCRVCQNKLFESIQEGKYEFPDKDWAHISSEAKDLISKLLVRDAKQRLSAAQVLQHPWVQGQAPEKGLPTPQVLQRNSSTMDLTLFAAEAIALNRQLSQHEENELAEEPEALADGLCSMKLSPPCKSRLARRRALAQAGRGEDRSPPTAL
CDK9-Cyclin T1, sequence (P50750 whole entry): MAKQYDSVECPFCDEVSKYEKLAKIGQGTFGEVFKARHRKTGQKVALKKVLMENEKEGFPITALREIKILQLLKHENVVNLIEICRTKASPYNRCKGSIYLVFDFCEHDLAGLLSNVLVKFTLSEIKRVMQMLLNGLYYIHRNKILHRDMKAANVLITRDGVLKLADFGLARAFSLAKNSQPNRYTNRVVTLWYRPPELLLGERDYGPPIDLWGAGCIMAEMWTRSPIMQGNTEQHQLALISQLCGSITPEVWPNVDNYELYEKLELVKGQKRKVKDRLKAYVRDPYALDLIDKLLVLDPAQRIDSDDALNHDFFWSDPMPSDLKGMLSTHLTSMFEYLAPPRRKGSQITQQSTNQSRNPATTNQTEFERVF
CDK9-Cyclin T1, sequence (O60563 whole entry partner): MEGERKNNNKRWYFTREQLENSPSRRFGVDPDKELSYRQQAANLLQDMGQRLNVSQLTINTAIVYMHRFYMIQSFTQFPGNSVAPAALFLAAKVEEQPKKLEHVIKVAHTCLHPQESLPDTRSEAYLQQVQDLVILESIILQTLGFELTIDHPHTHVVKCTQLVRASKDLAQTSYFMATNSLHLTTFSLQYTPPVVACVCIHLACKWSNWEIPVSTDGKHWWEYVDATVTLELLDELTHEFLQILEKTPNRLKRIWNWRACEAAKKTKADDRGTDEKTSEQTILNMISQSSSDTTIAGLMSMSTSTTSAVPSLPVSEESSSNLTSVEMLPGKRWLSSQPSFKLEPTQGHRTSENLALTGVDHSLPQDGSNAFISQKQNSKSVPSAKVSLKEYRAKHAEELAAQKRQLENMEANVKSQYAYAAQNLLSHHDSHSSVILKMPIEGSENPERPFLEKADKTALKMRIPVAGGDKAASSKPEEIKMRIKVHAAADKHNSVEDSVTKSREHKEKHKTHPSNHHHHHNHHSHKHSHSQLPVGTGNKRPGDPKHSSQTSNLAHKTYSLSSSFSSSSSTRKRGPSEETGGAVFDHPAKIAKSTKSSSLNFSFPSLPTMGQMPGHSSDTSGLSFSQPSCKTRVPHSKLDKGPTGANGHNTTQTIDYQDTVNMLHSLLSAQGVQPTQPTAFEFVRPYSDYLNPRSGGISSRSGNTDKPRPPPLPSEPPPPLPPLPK
IR, sequence (P06213 28-1382): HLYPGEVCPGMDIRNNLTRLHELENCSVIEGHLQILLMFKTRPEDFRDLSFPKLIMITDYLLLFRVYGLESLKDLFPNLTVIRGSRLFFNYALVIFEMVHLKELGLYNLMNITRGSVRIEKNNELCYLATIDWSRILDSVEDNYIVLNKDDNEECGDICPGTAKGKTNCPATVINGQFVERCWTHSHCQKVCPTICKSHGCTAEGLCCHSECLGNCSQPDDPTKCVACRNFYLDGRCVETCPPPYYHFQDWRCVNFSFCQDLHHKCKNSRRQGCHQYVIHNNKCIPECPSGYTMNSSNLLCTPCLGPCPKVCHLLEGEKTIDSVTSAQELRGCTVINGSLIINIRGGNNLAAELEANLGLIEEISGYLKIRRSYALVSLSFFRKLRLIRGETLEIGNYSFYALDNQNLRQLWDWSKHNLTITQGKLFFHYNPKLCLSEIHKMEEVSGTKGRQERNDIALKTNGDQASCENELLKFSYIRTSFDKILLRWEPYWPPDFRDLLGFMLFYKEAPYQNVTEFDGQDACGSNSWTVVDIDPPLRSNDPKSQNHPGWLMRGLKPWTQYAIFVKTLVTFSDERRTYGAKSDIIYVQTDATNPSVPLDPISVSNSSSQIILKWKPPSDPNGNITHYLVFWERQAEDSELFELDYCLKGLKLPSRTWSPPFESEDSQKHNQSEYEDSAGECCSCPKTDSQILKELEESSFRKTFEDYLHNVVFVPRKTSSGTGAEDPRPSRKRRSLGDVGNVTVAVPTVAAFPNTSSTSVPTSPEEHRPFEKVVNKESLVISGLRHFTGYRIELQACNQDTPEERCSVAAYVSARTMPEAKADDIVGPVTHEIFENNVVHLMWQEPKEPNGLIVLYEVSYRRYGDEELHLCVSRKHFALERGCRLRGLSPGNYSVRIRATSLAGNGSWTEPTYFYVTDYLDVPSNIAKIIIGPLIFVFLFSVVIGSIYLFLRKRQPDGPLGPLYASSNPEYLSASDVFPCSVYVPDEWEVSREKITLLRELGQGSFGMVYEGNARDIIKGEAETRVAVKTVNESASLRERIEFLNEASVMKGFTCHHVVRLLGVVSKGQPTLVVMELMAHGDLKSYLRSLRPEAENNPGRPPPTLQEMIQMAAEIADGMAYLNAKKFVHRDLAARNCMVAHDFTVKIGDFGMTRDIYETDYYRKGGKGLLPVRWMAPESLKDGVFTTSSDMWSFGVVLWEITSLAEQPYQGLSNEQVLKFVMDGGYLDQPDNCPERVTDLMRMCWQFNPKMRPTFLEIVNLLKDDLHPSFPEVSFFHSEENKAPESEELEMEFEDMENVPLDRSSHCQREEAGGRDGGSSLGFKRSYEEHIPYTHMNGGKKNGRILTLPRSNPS
TrkA, sequence (P04629 33-796): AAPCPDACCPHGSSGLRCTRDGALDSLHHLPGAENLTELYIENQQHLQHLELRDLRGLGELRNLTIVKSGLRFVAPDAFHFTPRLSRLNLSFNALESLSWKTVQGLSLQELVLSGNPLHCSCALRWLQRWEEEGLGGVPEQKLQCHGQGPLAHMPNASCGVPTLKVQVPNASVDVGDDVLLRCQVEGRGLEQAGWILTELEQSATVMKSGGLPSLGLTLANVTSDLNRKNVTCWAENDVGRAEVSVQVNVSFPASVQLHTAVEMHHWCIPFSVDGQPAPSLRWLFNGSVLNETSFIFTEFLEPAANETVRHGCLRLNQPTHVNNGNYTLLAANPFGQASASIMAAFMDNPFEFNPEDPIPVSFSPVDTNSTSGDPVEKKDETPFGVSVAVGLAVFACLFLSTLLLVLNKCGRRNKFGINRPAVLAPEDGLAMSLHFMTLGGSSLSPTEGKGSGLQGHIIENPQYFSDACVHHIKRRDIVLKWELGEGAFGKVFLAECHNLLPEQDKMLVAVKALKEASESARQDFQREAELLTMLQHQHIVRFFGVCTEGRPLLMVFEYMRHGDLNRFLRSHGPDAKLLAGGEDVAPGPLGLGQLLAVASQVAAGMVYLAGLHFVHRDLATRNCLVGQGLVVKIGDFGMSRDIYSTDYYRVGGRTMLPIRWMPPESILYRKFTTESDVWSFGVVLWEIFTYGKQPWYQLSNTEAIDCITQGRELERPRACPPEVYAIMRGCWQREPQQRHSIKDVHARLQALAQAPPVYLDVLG

| Structure (SMILES) | remaining activity at 0.1 µM [1] [%] | remaining activity at 1 µM [1] [%] | remaining activity at 0.1 µM [2] [%] | remaining activity at 1 µM [2] [%] | remaining activity at 0.1 µM [3] [%] | remaining activity at 1 µM [3] [%] | remaining activity at 0.1 µM [4] [%] | remaining activity at 1 µM [4] [%] | remaining activity at 0.1 µM [5] [%] | remaining activity at 1 µM [5] [%] | remaining activity at 0.1 µM [6] [%] | remaining activity at 1 µM [6] [%] | Kinetics of activation of MAPKs including ERK1/2 and p38α/β [7] | TLR-stimulated phosphorylation of ERK1/2, JNK1/2, p38α/β MAPKs, MSK1/2, IKKα/β, TBK1 and their direct substrates [7] | remaining activity at 0.1 µM [8] [%] | remaining activity at 1 µM [8] [%] | remaining activity at 0.1 µM [9] [%] | remaining activity at 0.1 µM [10] [%] | remaining activity at 1 µM [10] [%] | remaining activity at 0.1 µM [11] [%] | also measured |
| --- | --- | --- | --- | --- | --- | --- | --- | --- | --- | --- | --- | --- | --- | --- | --- | --- | --- | --- | --- | --- | --- |
| COc1cc(Nc2c(C#N)cnc3cc(OCCCN4CCN(C)CC4)c(OC)cc23)c(Cl)cc1Cl [Bosutinib, bosutinib] | 82 ± 15 | 61 ± 2 | 117 ± 1 | 108 ± 4 | 5 ± 1 | 1 | 99 ± 14 | 105 ± 2 | 89 ± 8 | 68 ± 1 | 111 ± 16 | 105 ± 7 | no effect | occurred normally | 92 ± 16 | 98 | 0 | 87 ± 7 | 107 ± 34 | 101 ± 8 | remaining activity at 1 µM ([9]; 1 µM): 1%; remaining activity at 1 µM [11]: 125 ± 16%; remaining activity at 0.1 µM [12]: 75 ± 1%; remaining activity at 1 µM [12]: 29 ± 1%; remaining activity at 0.1 µM [13]: 95%; remaining activity at 1 µM [13]: 57%; LPS-stimulated CREB-dependent gene transcription including IL-10 and Nurr77 [14]: strongly potentiate; remaining activity at 0.1 µM [15]: 25 ± 2%; remaining activity at 1 µM [15]: 7%; LPS-stimulated CREB-dependent gene transcription including IL-10 and Nurr77 [16]: little effect |
| Cc1nc(Nc2ncc(C(=O)Nc3c(C)cccc3Cl)s2)cc(N2CCN(CCO)CC2)n1 [Dasatinib] | 50 ± 3 | 8 | 115 | 113 ± 12 | 90 ± 4 | 51 ± 1 | 108 | 102 ± 9 | 118 ± 4 | 126 ± 2 | 110 ± 12 | 121 ± 27 | no effect | occurred normally | 94 ± 9 | 92 ± 1 | 22 ± 1 | 99 ± 2 | 94 ± 7 | 122 ± 8 | remaining activity at 1 µM [11]: 138 ± 12%; remaining activity at 0.1 µM [12]: 100 ± 1%; remaining activity at 1 µM [12]: 97 ± 10%; remaining activity at 0.1 µM [13]: 105 ± 4%; remaining activity at 1 µM [13]: 122 ± 6%; LPS-stimulated CREB-dependent gene transcription including IL-10 and Nurr77 [14]: strongly potentiate; remaining activity at 0.1 µM [15]: 107 ± 11%; remaining activity at 1 µM [15]: 88 ± 2%; LPS-stimulated CREB-dependent gene transcription including IL-10 and Nurr77 [16]: little effect |
